# In patent US6737383B1, “Herbicidal oxadiazolidines” (priority 1999, dated 2004):
# Tests used:
# corn = experiment: Test B pre/postemergence corn; format: in vivo, Zea mays
# In short: (§1)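 Test chemicals in a non-phytotoxic solvent mixture with surfactant were sprayed preemergence onto planted seeds and postemergence onto plants 2 to 18 cm tall (1- to 4-leaf stage). After twelve to sixteen days in a greenhouse, injury was visually rated against untreated controls from 0 (no effect) to 10 (complete control).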
# soybean = experiment: Test B pre/postemergence soybean; format: in vivo, Glycine max
# In short: as §1
# sugar beet = experiment: Test B pre/postemergence sugar beet; format: in vivo, Beta vulgaris
# In short: as §1
# crabgrass = experiment: Test B pre/postemergence crabgrass; format: in vivo, Digitaria sanguinalis
# In short: as §1
# bedstraw = experiment: Test B pre/postemergence bedstraw; format: in vivo, Galium aparine
# In short: as §1
# cocklebur = experiment: Test B pre/postemergence cocklebur; format: in vivo, Xanthium strumarium
# In short: as §1
# velvetleaf = experiment: Test B pre/postemergence velvetleaf; format: in vivo, Abutilon theophrasti
# In short: as §1
# wild oat = experiment: Test B pre/postemergence wild oat; format: in vivo, Avena fatua
# In short: as §1
# rape = experiment: Test B pre/postemergence rape; format: in vivo, Brassica napus
# In short: as §1
# giant foxtail = experiment: Test B pre/postemergence giant foxtail; format: in vivo, Setaria faberii
# In short: as §1
# pigweed = experiment: Test B pre/postemergence pigweed; format: in vivo, Amaranthus retroflexus
# In short: as §1
# morningglory = experiment: Test B pre/postemergence morningglory; format: in vivo, Ipomoea hederacea
# In short: as §1
# purple nutsedge = experiment: Test B pre/postemergence purple nutsedge; format: in vivo, Cyperus rotundus; conditions: for Plant response rating, Nutsedge: Postemergence, scale of 0 to 10 where 0 is no effect and 10 is complete control
# In short: as §1
# blackgrass = experiment: Test B pre/postemergence blackgrass; format: in vivo, Alopecurus myosuroides
# In short: as §1
# surinam grass = experiment: Test B pre/postemergence surinam grass; format: in vivo, Brachiaria decumbens; conditions: for Plant response rating, B. signalgrass: Postemergence
# In short: as §1
# wheat = experiment: Test B pre/postemergence wheat; format: in vivo, Triticum aestivum
# In short: as §1
# [1] = Postemergence, Rate 62 g/ha, scale of 0 to 10, 0 is no effect, 10 is complete control
# [2] = Postemergence, Rate 125 g/ha, scale 0 to 10, 0 is no effect, 10 is complete control
# [3] = Postemergence, Rate 500 g/ha, scale of 0 to 10 where 0 is no effect and 10 is complete control
# [4] = Preemergence, Rate 62 g/ha, scale 0 to 10 (0 no effect, 10 complete control)
# [5] = Preemergence, Rate 125 g/ha, scale 0 to 10, 0 is no effect, 10 is complete control
# [6] = Preemergence, Rate 500 g/ha, scale of 0 to 10 where 0 is no effect and 10 is complete control
# [7] = Rate 250 g/ha, Postemergence, scale of 0 to 10 where 0 is no effect and 10 is complete control
smiles,measurement,setting,value
COCn1c(=O)on(C(=O)N(c2ccccc2)C(C)C)c1=O [Compound 562],Corn plant response rating,corn; [1],0
same,Corn plant response rating,corn; [2],3
same,"Plant response rating, Corn",corn; [3],7
same,Corn plant response rating,corn; [4],0
same,Corn plant response rating,corn; [5],3
same,Corn plant response rating (0 to 10 scale),"corn; Preemergence, Rate 250 g/ha",9
same,Corn plant response rating,corn; [6],9
same,"Plant response rating, Corn",corn; [7],7
same,Soybean plant response rating,soybean; [1],3
same,"Plant response rating, Soybean",soybean; [3],5
same,Soybean plant response rating,soybean; [4],0
same,Soybean plant response rating,soybean; [5],0
same,Soybean plant response rating (0 to 10 scale),"soybean; Preemergence, Rate 250 g/ha",9
same,Soybean plant response rating,soybean; [6],9
same,"Plant response rating, Soybean",soybean; [7],4
same,Sugarbeets plant response rating,sugar beet; [1],3
same,"Plant response rating, Sugarbeets",sugar beet; [3],5
same,Sugarbeets plant response rating,sugar beet; [4],6
same,Sugarbeets plant response rating,sugar beet; [5],8
same,Sugarbeets plant response rating (0 to 10 scale),"sugar beet; Preemergence, Rate 250 g/ha",9
same,Sugarbeets plant response rating,sugar beet; [6],9
same,"Plant response rating, Sugarbeets",sugar beet; [7],3
same,Crabgrass plant response rating,crabgrass; [1],7
same,Crabgrass plant response rating,crabgrass; [2],5
same,"Plant response rating, Crabgrass",crabgrass; [3],10
same,Crabgrass plant response rating,crabgrass; [4],8
same,Crabgrass plant response rating,crabgrass; [5],8
same,Crabgrass plant response rating (0 to 10 scale),"crabgrass; Preemergence, Rate 250 g/ha",10
same,Crabgrass plant response rating,crabgrass; [6],10
same,"Plant response rating, Crabgrass",crabgrass; [7],7
same,Bedstraw plant response rating,bedstraw; [4],0
same,Bedstraw plant response rating,bedstraw; [5],0
same,Bedstraw plant response rating (0 to 10 scale),"bedstraw; Preemergence, Rate 250 g/ha",0
same,Bedstraw plant response rating,bedstraw; [6],0
same,"Plant response rating, Bedstraw",bedstraw; [7],4
same,Cocklebur plant response rating,cocklebur; [1],2
same,Cocklebur plant response rating,cocklebur; [2],2
same,"Plant response rating, Cocklebur",cocklebur; [3],2
same,Cocklebur plant response rating,cocklebur; [4],0
same,Cocklebur plant response rating,cocklebur; [5],0
same,Cocklebur plant response rating (0 to 10 scale),"cocklebur; Preemergence, Rate 250 g/ha",0
same,Cocklebur plant response rating,cocklebur; [6],2
same,"Plant response rating, Cocklebur",cocklebur; [7],2
same,Velvetleaf plant response rating,velvetleaf; [1],3
same,"Plant response rating, Velvetleaf",velvetleaf; [3],6
same,Velvetleaf plant response rating,velvetleaf; [4],0
same,Velvetleaf plant response rating,velvetleaf; [5],0
same,Velvetleaf plant response rating (0 to 10 scale),"velvetleaf; Preemergence, Rate 250 g/ha",0
same,Velvetleaf plant response rating,velvetleaf; [6],7
same,"Plant response rating, Velvetleaf",velvetleaf; [7],6
same,Wild oats plant response rating,wild oat; [1],0
same,"Plant response rating, Wild oats",wild oat; [3],4
same,Wild oats plant response rating,wild oat; [4],4
same,Wild oats plant response rating,wild oat; [5],9
same,Wild oats plant response rating (0 to 10 scale),"wild oat; Preemergence, Rate 250 g/ha",10
same,Wild oats plant response rating,wild oat; [6],10
same,"Plant response rating, Wild oats",wild oat; [7],0
same,Rape plant response rating,rape; [1],0
same,Rape plant response rating,rape; [2],0
same,"Plant response rating, Rape",rape; [3],7
same,Rape plant response rating,rape; [4],0
same,Rape plant response rating,rape; [5],6
same,Rape plant response rating (0 to 10 scale),"rape; Preemergence, Rate 250 g/ha",10
same,Rape plant response rating,rape; [6],10
same,"Plant response rating, Rape",rape; [7],0
same,Giant foxtail plant response rating,giant foxtail; [1],7
same,Giant foxtail plant response rating,giant foxtail; [2],7
same,"Plant response rating, Giant foxtail",giant foxtail; [3],8
same,Giant foxtail plant response rating,giant foxtail; [4],4
same,Giant foxtail plant response rating,giant foxtail; [5],9
same,Giant foxtail plant response rating (0 to 10 scale),"giant foxtail; Preemergence, Rate 250 g/ha",8
same,Giant foxtail plant response rating,giant foxtail; [6],8
same,"Plant response rating, Giant foxtail",giant foxtail; [7],8
same,Redroot pigweed plant response rating,pigweed; [1],9
same,"Plant response rating, Redroot pigweed",pigweed; [3],9
same,Redroot pigweed plant response rating,pigweed; [4],10
same,Redroot pigweed plant response rating,pigweed; [5],10
same,Redroot pigweed plant response rating (0 to 10 scale),"pigweed; Preemergence, Rate 250 g/ha",10
same,Redroot pigweed plant response rating,pigweed; [6],10
same,"Plant response rating, Redroot pigweed",pigweed; [7],9
same,Morningglory plant response rating,morningglory; [1],4
same,Morningglory plant response rating,morningglory; [2],4
same,"Plant response rating, Morningglory",morningglory; [3],10
same,Morningglory plant response rating,morningglory; [4],0
same,Morningglory plant response rating,morningglory; [5],0
same,Morningglory plant response rating (0 to 10 scale),"morningglory; Preemergence, Rate 250 g/ha",0
same,Morningglory plant response rating,morningglory; [6],8
same,"Plant response rating, Morningglory",morningglory; [7],10
same,"Plant response rating, Nutsedge",purple nutsedge; Rate 500 g/ha,5
same,Nutsedge plant response rating,purple nutsedge; [4],0
same,Nutsedge plant response rating,purple nutsedge; [5],0
same,Nutsedge plant response rating (0 to 10 scale),"purple nutsedge; Preemergence, Rate 250 g/ha",0
same,"Plant response rating, Nutsedge",purple nutsedge; Rate 250 g/ha,5
same,Blackgrass plant response rating,blackgrass; [1],3
same,Blackgrass plant response rating,blackgrass; [2],3
same,"Plant response rating, Blackgrass",blackgrass; [3],3
same,Blackgrass plant response rating,blackgrass; [4],4
same,Blackgrass plant response rating,blackgrass; [5],10
same,Blackgrass plant response rating (0 to 10 scale),"blackgrass; Preemergence, Rate 250 g/ha",10
same,Blackgrass plant response rating,blackgrass; [6],10
same,"Plant response rating, Blackgrass",blackgrass; [7],3
same,"Plant response rating, B. signalgrass","surinam grass; Rate 500 g/ha, scale of 0 to 10 where 0 is no effect and 10 is complete control",7
same,B. signalgrass plant response rating,surinam grass; [4],5
same,B. signalgrass plant response rating,surinam grass; [5],8
same,"B. signalgrass plant response rating (0 to 10 scale, 0 is no effect, 10 is complete control)","surinam grass; Preemergence, Rate 250 g/ha",10
same,B. signalgrass plant response rating,surinam grass; [6],10
same,"Plant response rating, B. signalgrass","surinam grass; Rate 250 g/ha, scale of 0 to 10 where 0 is no effect and 10 is complete control",5
same,Wheat plant response rating,wheat; [1],0
same,"Plant response rating, Wheat",wheat; [3],5
same,Wheat plant response rating,wheat; [4],3
same,Wheat plant response rating,wheat; [5],9
same,Wheat plant response rating (0 to 10 scale),"wheat; Preemergence, Rate 250 g/ha",9
same,Wheat plant response rating,wheat; [6],9
same,"Plant response rating, Wheat",wheat; [7],7
